# Test system: not listed separately
# Assay: Toxicity in BALB/c nude mouse xenografted with human MDA-MB-231 cells assessed as body weight change at 30 mg/kg,ip every 2days for 20 days
# Format: organism-based
# Settings: in vivo, 480 h, time 20 day
row,Structure (SMILES),Activity
1,Cc1cc(Nc2cc(N3CCN(C)CC3)nc(/C=C/c3ccccc3)n2)n[nH]1 [ENMD-2076],Non-Toxic

# Test system: HeLa
# Assay: Antiproliferative activity against human HeLa cells assessed as inhibition of cell proliferation incubated for 48 hrs by CCK-8 assay
# Format: functional, cell-based
# Settings: not given
row,Structure (SMILES),IC50 [µM]
1,Cc1cc(Nc2cc(N3CCN(C)CC3)nc(/C=C/c3ccccc3)n2)n[nH]1 [ENMD-2076],9.02
2,Cc1cc(Nc2nc(-c3ccc(N)cc3)nc3cc(N4CCN(C)CC4)ccc23)n[nH]1,4.88
3,Cc1cc(Nc2nc(-c3ccc(OS(=O)(=O)F)cc3)nc3cc(N4CCN(C)CC4)ccc23)n[nH]1,4.87
4,Cc1cc(Nc2nc(-c3ccccc3)nc3cc(N4CCN(C)CC4)ccc23)n[nH]1,5.5
5,C=CC(=O)Nc1ccc(-c2nc(Nc3cc(C)[nH]n3)c3ccc(N4CCOCC4)cc3n2)cc1,5.51
6,Cc1cc(Nc2nc(-c3cccc(N)c3)nc3cc(N4CCN(C)CC4)ccc23)n[nH]1,6.77
7,Cc1cc(Nc2nc(-c3ccccc3N)nc3cc(N4CCN(C)CC4)ccc23)n[nH]1,8.3
8,C=CC(=O)Nc1cccc(-c2nc(Nc3cc(C)[nH]n3)c3ccc(N4CCOCC4)cc3n2)c1,2.23
9,CCC(=O)Nc1ccc(-c2nc(Nc3cc(C)[nH]n3)c3ccc(N4CCN(C)CC4)cc3n2)cc1,17.9
10,C=CC(=O)Nc1cccc(-c2nc(Nc3cc(C)[nH]n3)c3ccc(N4CCN(C)CC4)cc3n2)c1,4.22
11,C=CC(=O)Nc1cc(-c2nc(Nc3cc(C)[nH]n3)c3ccc(N4CCN(C)CC4)cc3n2)ccc1C,9.13
12,C=CC(=O)Nc1ccccc1-c1nc(Nc2cc(C)[nH]n2)c2ccc(N3CCN(C)CC3)cc2n1,41.2
13,Cc1cc(Nc2nc(-c3ccc(O)cc3)nc3cc(N4CCN(C)CC4)ccc23)n[nH]1,9.68
14,Cc1cc(Nc2nc(-c3ccc(N)cc3)nc3cc(N4CCOCC4)ccc23)n[nH]1,7.3
15,Cc1cc(Nc2nc(-c3ccccc3O)nc3cc(N4CCN(C)CC4)ccc23)n[nH]1,3.8
16,Cc1cc(Nc2nc(-c3cccc(N)c3)nc3cc(N4CCOCC4)ccc23)n[nH]1,7.52
17,Cc1cc(Nc2nc(-c3cccc(O)c3)nc3cc(N4CCN(C)CC4)ccc23)n[nH]1,6.8

# Test system: not listed separately
# Assay: Cytotoxicity against human L02 cells assessed as inhibition of cell proliferation incubated for 48 hrs by CCK-8 assay
# Format: toxicity, cell-based
# Settings: not given
row,Structure (SMILES),IC50 at 48 h [µM]
1,Cc1cc(Nc2cc(N3CCN(C)CC3)nc(/C=C/c3ccccc3)n2)n[nH]1 [ENMD-2076],42.6
2,Cc1cc(Nc2nc(-c3ccccc3)nc3cc(N4CCN(C)CC4)ccc23)n[nH]1,2.74
3,C=CC(=O)Nc1ccc(-c2nc(Nc3cc(C)[nH]n3)c3ccc(N4CCOCC4)cc3n2)cc1,43.2
4,CCC(=O)Nc1ccc(-c2nc(Nc3cc(C)[nH]n3)c3ccc(N4CCN(C)CC4)cc3n2)cc1,24.7
5,C=CC(=O)Nc1cc(-c2nc(Nc3cc(C)[nH]n3)c3ccc(N4CCN(C)CC4)cc3n2)ccc1C,34.2

# Test system: A549
# Assay: Antiproliferative activity against human A549 cells assessed as inhibition of cell proliferation incubated for 48 hrs by CCK-8 assay
# Format: functional, cell-based
# Settings: A549, 48 h
row,Structure (SMILES),IC50 [µM]
1,Cc1cc(Nc2cc(N3CCN(C)CC3)nc(/C=C/c3ccccc3)n2)n[nH]1 [ENMD-2076],2.65
2,Cc1cc(Nc2nc(-c3ccc(N)cc3)nc3cc(N4CCN(C)CC4)ccc23)n[nH]1,4.12
3,Cc1cc(Nc2nc(-c3ccc(OS(=O)(=O)F)cc3)nc3cc(N4CCN(C)CC4)ccc23)n[nH]1,1.15
4,Cc1cc(Nc2nc(-c3ccccc3)nc3cc(N4CCN(C)CC4)ccc23)n[nH]1,1.44
5,C=CC(=O)Nc1ccc(-c2nc(Nc3cc(C)[nH]n3)c3ccc(N4CCOCC4)cc3n2)cc1,0.26
6,Cc1cc(Nc2nc(-c3cccc(N)c3)nc3cc(N4CCN(C)CC4)ccc23)n[nH]1,2.06
7,Cc1cc(Nc2nc(-c3ccccc3N)nc3cc(N4CCN(C)CC4)ccc23)n[nH]1,1.13
8,C=CC(=O)Nc1cccc(-c2nc(Nc3cc(C)[nH]n3)c3ccc(N4CCOCC4)cc3n2)c1,0.85
9,CCC(=O)Nc1ccc(-c2nc(Nc3cc(C)[nH]n3)c3ccc(N4CCN(C)CC4)cc3n2)cc1,1.18
10,C=CC(=O)Nc1cccc(-c2nc(Nc3cc(C)[nH]n3)c3ccc(N4CCN(C)CC4)cc3n2)c1,3.27
11,C=CC(=O)Nc1cc(-c2nc(Nc3cc(C)[nH]n3)c3ccc(N4CCN(C)CC4)cc3n2)ccc1C,0.31
12,C=CC(=O)Nc1ccccc1-c1nc(Nc2cc(C)[nH]n2)c2ccc(N3CCN(C)CC3)cc2n1,19.7
13,Cc1cc(Nc2nc(-c3ccc(O)cc3)nc3cc(N4CCN(C)CC4)ccc23)n[nH]1,4.74
14,Cc1cc(Nc2nc(-c3ccc(N)cc3)nc3cc(N4CCOCC4)ccc23)n[nH]1,1.64
15,Cc1cc(Nc2nc(-c3ccccc3O)nc3cc(N4CCN(C)CC4)ccc23)n[nH]1,2.69
16,Cc1cc(Nc2nc(-c3cccc(N)c3)nc3cc(N4CCOCC4)ccc23)n[nH]1,1.77
17,Cc1cc(Nc2nc(-c3cccc(O)c3)nc3cc(N4CCN(C)CC4)ccc23)n[nH]1,2.15

# Test system: SJSA-1
# Assay: Antiproliferative activity against human SJSA-1 cells assessed as inhibition of cell proliferation incubated for 48 hrs by CCK-8 assay
# Format: functional, cell-based
# Settings: SJSA-1, 48 h
row,Structure (SMILES),IC50 [µM]
1,Cc1cc(Nc2cc(N3CCN(C)CC3)nc(/C=C/c3ccccc3)n2)n[nH]1 [ENMD-2076],56.7
2,Cc1cc(Nc2nc(-c3ccc(N)cc3)nc3cc(N4CCN(C)CC4)ccc23)n[nH]1,2.82
3,Cc1cc(Nc2nc(-c3ccc(OS(=O)(=O)F)cc3)nc3cc(N4CCN(C)CC4)ccc23)n[nH]1,23.1
4,Cc1cc(Nc2nc(-c3ccccc3)nc3cc(N4CCN(C)CC4)ccc23)n[nH]1,18.8
5,C=CC(=O)Nc1ccc(-c2nc(Nc3cc(C)[nH]n3)c3ccc(N4CCOCC4)cc3n2)cc1,14.8
6,Cc1cc(Nc2nc(-c3cccc(N)c3)nc3cc(N4CCN(C)CC4)ccc23)n[nH]1,3.67
7,Cc1cc(Nc2nc(-c3ccccc3N)nc3cc(N4CCN(C)CC4)ccc23)n[nH]1,2.66
8,C=CC(=O)Nc1cccc(-c2nc(Nc3cc(C)[nH]n3)c3ccc(N4CCOCC4)cc3n2)c1,12.5
9,CCC(=O)Nc1ccc(-c2nc(Nc3cc(C)[nH]n3)c3ccc(N4CCN(C)CC4)cc3n2)cc1,28.6
10,C=CC(=O)Nc1cccc(-c2nc(Nc3cc(C)[nH]n3)c3ccc(N4CCN(C)CC4)cc3n2)c1,6.8
11,C=CC(=O)Nc1cc(-c2nc(Nc3cc(C)[nH]n3)c3ccc(N4CCN(C)CC4)cc3n2)ccc1C,23.6
12,C=CC(=O)Nc1ccccc1-c1nc(Nc2cc(C)[nH]n2)c2ccc(N3CCN(C)CC3)cc2n1,13.9
13,Cc1cc(Nc2nc(-c3ccc(O)cc3)nc3cc(N4CCN(C)CC4)ccc23)n[nH]1,17.4
14,Cc1cc(Nc2nc(-c3ccc(N)cc3)nc3cc(N4CCOCC4)ccc23)n[nH]1,6.54
15,Cc1cc(Nc2nc(-c3ccccc3O)nc3cc(N4CCN(C)CC4)ccc23)n[nH]1,11.6
16,Cc1cc(Nc2nc(-c3cccc(N)c3)nc3cc(N4CCOCC4)ccc23)n[nH]1,12.5
17,Cc1cc(Nc2nc(-c3cccc(O)c3)nc3cc(N4CCN(C)CC4)ccc23)n[nH]1,10.7

# Test system: MDA-MB-231
# Assay: Antiproliferative activity against human MDA-MB-231 cells assessed as inhibition of cell proliferation incubated for 48 hrs by CCK-8 assay
# Format: functional, cell-based
# Settings: MDA-MB-231, 48 h
row,Structure (SMILES),IC50 [µM]
1,Cc1cc(Nc2cc(N3CCN(C)CC3)nc(/C=C/c3ccccc3)n2)n[nH]1 [ENMD-2076],5.21
2,Cc1cc(Nc2nc(-c3ccc(N)cc3)nc3cc(N4CCN(C)CC4)ccc23)n[nH]1,0.64
3,Cc1cc(Nc2nc(-c3ccc(OS(=O)(=O)F)cc3)nc3cc(N4CCN(C)CC4)ccc23)n[nH]1,4.34
4,Cc1cc(Nc2nc(-c3ccccc3)nc3cc(N4CCN(C)CC4)ccc23)n[nH]1,1.44
5,C=CC(=O)Nc1ccc(-c2nc(Nc3cc(C)[nH]n3)c3ccc(N4CCOCC4)cc3n2)cc1,2.66
6,Cc1cc(Nc2nc(-c3cccc(N)c3)nc3cc(N4CCN(C)CC4)ccc23)n[nH]1,1.75
7,Cc1cc(Nc2nc(-c3ccccc3N)nc3cc(N4CCN(C)CC4)ccc23)n[nH]1,0.76
8,C=CC(=O)Nc1cccc(-c2nc(Nc3cc(C)[nH]n3)c3ccc(N4CCOCC4)cc3n2)c1,5.9
9,CCC(=O)Nc1ccc(-c2nc(Nc3cc(C)[nH]n3)c3ccc(N4CCN(C)CC4)cc3n2)cc1,2.2
10,C=CC(=O)Nc1cccc(-c2nc(Nc3cc(C)[nH]n3)c3ccc(N4CCN(C)CC4)cc3n2)c1,2.6
11,C=CC(=O)Nc1cc(-c2nc(Nc3cc(C)[nH]n3)c3ccc(N4CCN(C)CC4)cc3n2)ccc1C,1.66
12,C=CC(=O)Nc1ccccc1-c1nc(Nc2cc(C)[nH]n2)c2ccc(N3CCN(C)CC3)cc2n1,13.4
13,Cc1cc(Nc2nc(-c3ccc(O)cc3)nc3cc(N4CCN(C)CC4)ccc23)n[nH]1,1.34
14,Cc1cc(Nc2nc(-c3ccc(N)cc3)nc3cc(N4CCOCC4)ccc23)n[nH]1,4.39
15,Cc1cc(Nc2nc(-c3ccccc3O)nc3cc(N4CCN(C)CC4)ccc23)n[nH]1,2.43
16,Cc1cc(Nc2nc(-c3cccc(N)c3)nc3cc(N4CCOCC4)ccc23)n[nH]1,6.96
17,Cc1cc(Nc2nc(-c3cccc(O)c3)nc3cc(N4CCN(C)CC4)ccc23)n[nH]1,1.49

# Test system: MDA-MB-231
# Assay: Antitumor activity against human MDA-MB-231 cells xenografted in BALB/c nude mouse assessed as tumor growth inhibition at 30 mg/kg,ip every 2days for 20 days
# Format: functional
# Settings: MDA-MB-231, 480 h, time 20 day, read-out: TGI
row,Structure (SMILES),inhibition in vivo at 30 mg/kg [%]
1,Cc1cc(Nc2cc(N3CCN(C)CC3)nc(/C=C/c3ccccc3)n2)n[nH]1 [ENMD-2076],30.9

# Biological target: T1, Aurora kinase A (Homo sapiens, UniProt O14965)
# T1 sequence (O14965 whole entry): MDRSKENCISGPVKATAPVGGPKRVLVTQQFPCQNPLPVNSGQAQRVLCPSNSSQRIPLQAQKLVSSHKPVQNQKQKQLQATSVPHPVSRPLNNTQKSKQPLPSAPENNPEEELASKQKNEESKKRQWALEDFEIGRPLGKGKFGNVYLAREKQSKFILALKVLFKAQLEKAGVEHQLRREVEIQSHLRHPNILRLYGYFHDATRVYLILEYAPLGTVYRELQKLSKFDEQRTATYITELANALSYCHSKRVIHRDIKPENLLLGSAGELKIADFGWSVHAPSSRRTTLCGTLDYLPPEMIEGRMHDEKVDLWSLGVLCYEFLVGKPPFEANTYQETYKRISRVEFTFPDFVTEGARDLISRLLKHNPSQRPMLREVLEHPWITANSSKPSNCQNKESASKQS
# Assay: Inhibition of recombinant human Aurora A (1 to 403 residues) expressed in Escherichia coli using FAM-labeled peptide as substrate preincubated for 10 mins followed by substrate addition and measured after 20 mins in presence of ATP by HTRF assay
# Settings: not given
row,Structure (SMILES),IC50 [µM]
1,Cc1cc(Nc2nc(-c3ccc(N)cc3)nc3cc(N4CCN(C)CC4)ccc23)n[nH]1,0.0031
2,Cc1cc(Nc2nc(-c3ccc(OS(=O)(=O)F)cc3)nc3cc(N4CCN(C)CC4)ccc23)n[nH]1,0.025
3,C=CC(=O)Nc1ccc(-c2nc(Nc3cc(C)[nH]n3)c3ccc(N4CCOCC4)cc3n2)cc1,0.0027
4,Cc1cc(Nc2nc(-c3cccc(N)c3)nc3cc(N4CCN(C)CC4)ccc23)n[nH]1,0.0021
5,Cc1cc(Nc2nc(-c3ccccc3N)nc3cc(N4CCN(C)CC4)ccc23)n[nH]1,0.011
6,C=CC(=O)Nc1cccc(-c2nc(Nc3cc(C)[nH]n3)c3ccc(N4CCOCC4)cc3n2)c1,0.0017
7,CCC(=O)Nc1ccc(-c2nc(Nc3cc(C)[nH]n3)c3ccc(N4CCN(C)CC4)cc3n2)cc1,0.005
8,C=CC(=O)Nc1cccc(-c2nc(Nc3cc(C)[nH]n3)c3ccc(N4CCN(C)CC4)cc3n2)c1,0.0015
9,C=CC(=O)Nc1cc(-c2nc(Nc3cc(C)[nH]n3)c3ccc(N4CCN(C)CC4)cc3n2)ccc1C,0.0011
10,C=CC(=O)Nc1ccccc1-c1nc(Nc2cc(C)[nH]n2)c2ccc(N3CCN(C)CC3)cc2n1,0.045
11,Cc1cc(Nc2nc(-c3ccc(O)cc3)nc3cc(N4CCN(C)CC4)ccc23)n[nH]1,0.0025
12,Cc1cc(Nc2nc(-c3ccccc3O)nc3cc(N4CCN(C)CC4)ccc23)n[nH]1,0.0055
13,Cc1cc(Nc2nc(-c3cccc(O)c3)nc3cc(N4CCN(C)CC4)ccc23)n[nH]1,0.002

# Reference: ChEMBL document CHEMBL5370554, “Discovery of a first-in-class Aurora A covalent inhibitor for the treatment of triple negative breast cancer” (Eur J Med Chem, 2023)
